In patent US11702400B2, “Salt types, crystal forms, and preparation methods for benzopyrazole compounds as RHO kinase inhibitors” (MEDSHINE DISCOVERY INC., priority 2019, dated 2023):

Key:
[1] = Accelerated stability test of the crystal form A of the compound of formula (II-1); format: physicochemical; conditions: long-term placement conditions
[2] = Pharmacokinetic study of the crystal form A of the compound of formula (II-1) in Beagle dogs; format: in vivo
Method: Experimental purpose: To study the pharmacokinetics of the compounds in Beagle dogs
Experimental materials: Beagle dogs (12, half male and half female)
Experimental procedure: The pharmacokinetic characteristics of the compounds were tested in Beagle dogs after intravenous (IV) and oral (PO) administration using standard protocols. The candidate compounds were prepared into 0.5 mg/mL and 1.5 mg/mL clarified solutions and administrated to Beagle dogs for single intravenous injection and oral administration. The solvent for both intravenous and oral administration was 5% DMSO/95% (10% hydroxypropyl β-cyclodextrin) aqueous solution. 12 beagle dogs were used in this project, 6 beagle dogs (half male and half female) were administered intravenously at a dose of 1 mg/kg and plasma samples were collected at […], 0.5, 1, 2, 4, 8, 12, 24, 36, 48 and 72 h after administration, and the other 6 beagle dogs (half male and half female) were administered orally by gavage at a dose of 7.5 mg/kg and plasma samples were collected at 0.25, 0.5, 1, 2, 4, 8, 12, 24, 36, 48 and 72 h after administration. 15 μL of plasma sample was added to a 96-well plate, and 300 μL of internal standard working solution (MeOH (containing 1.00 ng/mL Verapamil and 0.1% formic acid (FA)): ACN (v:v, 50:50) solution) was added to precipitate the proteins, the 96-well plate was shaken for 15 min, followed by centrifugation at 4° C., 3220 g for 15 min. 150 μL of supernatant was placed in a new 96-well plate with 150 μL of aqueous solution containing 0.1% formic acid (FA) and shaken for 10 min, and then centrifuged at 4° C., 3220 g for 5 min. The sample was directly injected, and the plasma drug concentration was quantitatively analyzed by LC-MS/MS analysis method, and pharmacokinetic parameters were calculated, such as peak concentration (Cmax), clearance rate (CL), half-life (T1/2), […] (Vdss), area under the drug-time curve (AUC0-last), bioavailability (F), etc.

[3] = Accelerated stability test of the crystal form A of the compound of formula (II-1); format: physicochemical; conditions: 40° C./75% RH
Method: Accelerated stability test: each sample was weighed 0.8 g (accelerated 1 month, accelerated 2 months) or 1.2 g (accelerated 3 months, accelerated 6 months) into double-layer low-density polyethylene (LDPE) bags, and each layer of LDPE bags was pierced and sealed, and then the LDPE bags were put into aluminum foil bags and heat sealed, respectively, and put into 40° C./75% RH conditions for investigation.

[4] = Pharmacokinetic study of the crystal form A of the compound of formula (II-1) in SD rats; format: in vivo
Method: Experimental Purpose: To Study the Pharmacokinetics of the Compounds in SD Rats
Experimental Materials: SD Rats (12, Half Male and Half Female)
Experimental procedure: The pharmacokinetic characteristics of the compounds were tested in rodents after intravenous (IV) and oral (PO) administration using standard protocols. The candidate compounds were prepared into 0.5 mg/mL and 1 mg/mL clarified solutions and administrated to rats for single intravenous injection and oral administration. The solvent for both intravenous and oral administration was 5% DMSO/95% (10% hydroxypropyl β-cyclodextrin) aqueous solution. 12 SD rats were used in this project, and 6 rats (half male and half female) were administered intravenously at a dose of 1 mg/kg and plasma samples were collected at 0.0833, 0.25, 0.5, 1, 2, 4, 8, 12, and 24 h after administration, and the other 6 rats (half male and half female) were administered orally by gavage at a dose of 10 mg/kg and plasma samples were collected at 0.25, 0.5, 1, 2, 4, 8, 12 and 24 h after administration. 15 μL of plasma sample was added to a 96-well plate, and 300 μL of internal standard working solution (MeOH (containing 1.00 ng/mL Verapamil and 0.1% formic acid (FA)): ACN (v:v, 50:50) solution) was added to precipitate the proteins, the 96-well plate was shaken for 15 min, followed by centrifugation at 4° C., 3220 g for 15 min. 150 μL of supernatant was placed in a new 96-well plate with 150 μL of aqueous solution containing 0.1% formic acid (FA) and shaken for 10 min, and then centrifuged at 4° C., 3220 g for 5 min. The samples were directly injected, and the plasma drug concentration was quantitatively analyzed by LC-MS/MS analysis method, and pharmacokinetic parameters were calculated, such as peak concentration (Cmax), clearance rate (CL), half-life (T1/2), […] (Vdss), area under the drug-time curve (AUC0-last), bioavailability (F), etc.

COc1cccc(C(CN)NC(=O)c2cc(-c3ccc4[nH]nc(C)c4c3)ccn2)c1.Cl.Cl (stereo not drawn)
stability in accelerated test (conclusion in words) [1]: stable | Clearance rate CL ([2]; Beagle dogs, IV 1 mg/kg): 1.34 L/h/kg | Half-life T1/2 (IV) ([2]; Beagle dogs, IV 1 mg/kg): 12.4 h | Tissue distribution Vdss ([2]; Beagle dogs, IV 1 mg/kg): 18.6 L/kg | Bioavailability F ([2]; Beagle dogs, IV 1 mg/kg, PO 7.5 mg/kg): 90.4% | Area under drug-time curve AUC0-last PO ([2]; Beagle dogs, PO 7.5 mg/kg): 12.6 µM·h | Cmax ([2]; Beagle dogs, half male and half female, PO 7.5 mg/kg, read-out: Peak concentration Cmax): 0.834 µM | pharmacokinetic properties (conclusion in words) ([2]; beagle dogs): good pharmacokinetic properties | Content ([3]; 0 day): 99.5% | Impurity at RRT 0.66 ([3]; 0 day): 0.06% | Impurity at RRT 0.85 ([3]; 0 day): 0.34% | Impurity at RRT 0.90 ([3]; 0 day): 0.02% | Impurity at RRT 1.64 ([3]; 0 day): 0.06% | Total impurities ([3]; 0 day): 0.46% | Content ([3]; 1 month): 100.0% | Impurity at RRT 0.66 ([3]; 1 month): 0.06% | Impurity at RRT 0.85 ([3]; 1 month): 0.36% | Impurity at RRT 0.90 ([3]; 1 month): 0.02% | Impurity at RRT 1.64 ([3]; 1 month): 0.05% | Total impurities ([3]; 1 month): 0.47% | Content ([3]; 2 months): 99.6% | Impurity at RRT 0.66 ([3]; 2 months): 0.06% | Impurity at RRT 0.85 ([3]; 2 months): 0.33% | Impurity at RRT 0.90 ([3]; 2 months): 0.03% | Impurity at RRT 1.64 ([3]; 2 months): 0.04% | Total impurities ([3]; 2 months): 0.39% | Content ([3]; 3 months): 98.8% | Impurity at RRT 0.66 ([3]; 3 months): 0.06% | Impurity at RRT 0.85 ([3]; 3 months): 0.33% | Impurity at RRT 0.90 ([3]; 3 months): 0.04% | Impurity at RRT 1.64 ([3]; 3 months): 0.04% | Total impurities ([3]; 3 months): 0.39% | Clearance rate CL ([4]; SD rats, IV 1 mg/kg): 1.34 L/h/kg | Half-life T1/2 (IV) ([4]; SD rats, IV 1 mg/kg): 4.93 h | Tissue distribution Vdss ([4]; SD rats, IV 1 mg/kg): 7.39 L/kg | Bioavailability F ([4]; SD rats, IV 1 mg/kg, PO 10 mg/kg): 17.8% | Area under drug-time curve AUC0-last PO ([4]; SD rats, PO 10 mg/kg): 3.69 µM·h | Cmax ([4]; SD rats, half male and half female, PO 10 mg/kg, read-out: Peak concentration Cmax): 0.519 µM | pharmacokinetic properties (conclusion in words) ([4]; rats): good pharmacokinetic properties
